Literature values in patent US20220265792A1, “METHODS FOR TREATING SOLID TUMORS” (Breakbio Corp., priority 2019, published 2022).

What was measured:
Renal Cell Carcinoma = details: human, in vivo
Treg cells = details: 50 mg bid seven days, seven days off, another seven days of 50 mg bid
mCRC patients = details: 20 μg/Kg/day for 14 days, 1 to 3 cycles

Bevacizumab: monoclonal antibody binding circulating VEGF-A
intra-tumoral T-cell infiltration (Renal Cell Carcinoma): augmented intra-tumoral T-cell infiltration

O=P1(N(CCCl)CCCl)NCCCO1 (racemic) [cyclophosphamide, (RS)—N,N-bis(2-chloroethyl)-1,3,2-oxazaphosphinan-2-amine 2-oxide]
effect on Treg cells (Treg cells): significantly depleted Treg cells

COc1cc2nccc(Oc3ccc(NC(=O)NC4CC4)c(Cl)c3)c2cc1C(N)=O [Lenvatinib]
clinical effect as monotherapy (colorectal cancer): modest clinical effect

CNC(=O)c1cc(Oc2ccc(NC(=O)Nc3ccc(Cl)c(C(F)(F)F)c3)c(F)c2)ccn1 [regorafenib]
clinical activity as single agent (lung, pancreatic): modest clinical activity

B1: FLT3L: FMS-like tyrosine kinase 3 ligand, expands and mobilizes antigen presenting cells (protein, UniProt P49771 27-235, looked up)
Fms-related tyrosine kinase 3 …: TQDCSFQHSPISSDFAVKIRELSDYLLQDYPVTVASNLQDEELCGGLWRLVLAQRWMERLKTVAGSKMQGLLERVNTEIHFVTKCAFQPPPSCLRFVQTNISRLLQETSEQLVALKPWITRQNFSRCLELQCQPDSSTLPPPWSPRPLEATAPTAPQPPLLLLLLLPVGLLLLAAAWCLHWQRTRRRTPRPGEQVPPVPSPQDLLLVEH
number of APCs observed on the periphery of tumors (mCRC patients): significantly increased
percentage of APCs in PBMCs (mCRC patients; from 2.4%): 8.8%
number of leukocytes in peripheral blood (mCRC patients; from 5,900/mm^3): 11,200 /mm^3
